The test system of series [1] is Mus musculus. In words: Analgesic activity in Mus musculus (mouse) assessed as inhibition of acetic acid-induced writhing at 12 mg/kg, po measured after 25 min relative to control. Format: functional. In general terms: An intraperitoneal irritant provokes the stretching counted in writhing tests.
The subject of series [2] is Rattus norvegicus. In words: Anti-inflammatory activity in Rattus norvegicus (rat) assessed as inhibition of carrageenan-induced paw edema at 12 mg/kg, po administered at 1 hr prior to carrageenan-challenge measured after 4 hr relative to control. Format: functional. A general note: The carrageenan paw model is a standard test of acute inflammation.
Series [3] concerns Rattus norvegicus. In words: Anti-inflammatory activity in Rattus norvegicus (rat) assessed as inhibition of carrageenan-induced paw edema at 12 mg/kg, po administered at 1 hr prior to carrageenan-challenge measured after 1 hr relative to control. The format is functional.
For series [4], the system named is Rattus norvegicus. In words: Anti-inflammatory activity in Rattus norvegicus (rat) assessed as inhibition of carrageenan-induced paw edema at 12 mg/kg, po administered at 1 hr prior to carrageenan-challenge measured after 3 hr relative to control. The format is functional.
The nature of series [5]: Induction of nitric oxide release in phosphate buffer at 10^-4 M after 1 hr at pH 7.4 by Griess method in presence of L-cysteine relative to control. The format is physicochemical. The note with it: pH 7.4, 1 h, 100 µM.
The test system of series [6] is Rattus norvegicus. In words: Ulcerogenic activity in fasted albino Rattus norvegicus (rat) at 12 mg/kg, po administered QD for 3 days measured on day 4. The arrangement: dose 12 mg/kg, route oral. The note with it: in vivo, 72 h. The format is toxicity, organism-based.
Series [7] deals with Rattus norvegicus. As to the kind of experiment: Anti-inflammatory activity in Rattus norvegicus (rat) assessed as inhibition of carrageenan-induced paw edema at 12 mg/kg, po administered at 1 hr prior to carrageenan-challenge measured after 2 hr relative to control. The format is functional.
The test system of series [8] is Rattus norvegicus. As to the kind of experiment: Anti-inflammatory activity in Rattus norvegicus (rat) assessed as inhibition of carrageenan-induced paw edema at 10 mg/kg, po administered at 1 hr prior to carrageenan-challenge measured after 1 hr relative to control. The format is functional.
Series [9] has as its system Rattus norvegicus. In words: Anti-inflammatory activity in Rattus norvegicus (rat) assessed as inhibition of carrageenan-induced paw edema at 10 mg/kg, po administered at 1 hr prior to carrageenan-challenge measured after 4 hr relative to control. Format: functional.
Series [10] has as its system Mus musculus. As to the kind of experiment: Analgesic activity in Mus musculus (mouse) assessed as inhibition of acetic acid-induced writhing at 10 mg/kg, po measured after 25 min relative to control. The format is functional.
Series [11] concerns Rattus norvegicus. In words: Anti-inflammatory activity in Rattus norvegicus (rat) assessed as inhibition of carrageenan-induced paw edema at 10 mg/kg, po administered at 1 hr prior to carrageenan-challenge measured after 3 hr relative to control. Format: functional.
The subject of series [12] is Rattus norvegicus. As to the kind of experiment: Anti-inflammatory activity in Rattus norvegicus (rat) assessed as inhibition of carrageenan-induced paw edema at 10 mg/kg, po administered at 1 hr prior to carrageenan-challenge measured after 2 hr relative to control. Format: functional.
Series [13] concerns Rattus norvegicus. In words: Ulcerogenic activity in fasted albino Rattus norvegicus (rat) at 10 mg/kg, po administered QD for 3 days measured on day 4. The format is toxicity, organism-based. The arrangement: dose 10 mg/kg, route oral. The note with it: in vivo, 72 h.
Series [14] relates to Rattus norvegicus. As to the kind of experiment: Anti-inflammatory activity in Rattus norvegicus (rat) assessed as inhibition of carrageenan-induced paw edema at 14 mg/kg, po administered at 1 hr prior to carrageenan-challenge measured after 1 hr relative to control. The format is functional.
Series [15] relates to Rattus norvegicus. In words: Ulcerogenic activity in fasted albino Rattus norvegicus (rat) assessed as stomach mucosal injury at 14 mg/kg, po administered QD for 3 days measured on day 4 by electron microscopic analysis. Format: toxicity, organism-based. The arrangement: dose 14 mg/kg, route oral. The following applies: in vivo, 72 h.
For series [16], the system named is Rattus norvegicus. In words: Anti-inflammatory activity in Rattus norvegicus (rat) assessed as inhibition of carrageenan-induced paw edema at 14 mg/kg, po administered at 1 hr prior to carrageenan-challenge measured after 3 hr relative to control. Format: functional.
Series [17] concerns Rattus norvegicus. As to the kind of experiment: Ulcerogenic activity in fasted albino Rattus norvegicus (rat) at 14 mg/kg, po administered QD for 3 days measured on day 4. Format: toxicity, organism-based. Also noted: dose 14 mg/kg, route oral. The note with it: in vivo, 72 h.
Series [18] relates to Rattus norvegicus. As to the kind of experiment: Anti-inflammatory activity in Rattus norvegicus (rat) assessed as inhibition of carrageenan-induced paw edema at 14 mg/kg, po administered at 1 hr prior to carrageenan-challenge measured after 4 hr relative to control. Format: functional.
Series [19] has as its system Mus musculus. In words: Analgesic activity in Mus musculus (mouse) assessed as inhibition of acetic acid-induced writhing at 14 mg/kg, po measured after 25 min relative to control. Format: functional.
In series [20] the test system is Rattus norvegicus. As to the kind of experiment: Anti-inflammatory activity in Rattus norvegicus (rat) assessed as inhibition of carrageenan-induced paw edema at 14 mg/kg, po administered at 1 hr prior to carrageenan-challenge measured after 2 hr relative to control. Format: functional.
The test system of series [21] is Rattus norvegicus. In words: Anti-inflammatory activity in Rattus norvegicus (rat) assessed as inhibition of carrageenan-induced paw edema at 20 mg/kg, po administered at 1 hr prior to carrageenan-challenge measured after 1 hr relative to control. Format: functional.
The test system of series [22] is Rattus norvegicus. In words: Anti-inflammatory activity in Rattus norvegicus (rat) assessed as inhibition of carrageenan-induced paw edema at 20 mg/kg, po administered at 1 hr prior to carrageenan-challenge measured after 2 hr relative to control. The format is functional.
The subject of series [23] is Rattus norvegicus. As to the kind of experiment: Anti-inflammatory activity in Rattus norvegicus (rat) assessed as inhibition of carrageenan-induced paw edema at 20 mg/kg, po administered at 1 hr prior to carrageenan-challenge measured after 4 hr relative to control. Format: functional.
The subject of series [24] is Mus musculus. In words: Analgesic activity in Mus musculus (mouse) assessed as inhibition of acetic acid-induced writhing at 20 mg/kg, po measured after 25 min relative to control. The format is functional.
For series [25], the system named is Rattus norvegicus. In words: Anti-inflammatory activity in Rattus norvegicus (rat) assessed as inhibition of carrageenan-induced paw edema at 20 mg/kg, po administered at 1 hr prior to carrageenan-challenge measured after 3 hr relative to control. Format: functional.
In series [26] the test system is Rattus norvegicus. As to the kind of experiment: Anti-inflammatory activity in Rattus norvegicus (rat) assessed as inhibition of carrageenan-induced paw edema at 13 mg/kg, po administered at 1 hr prior to carrageenan-challenge measured after 1 hr relative to control. Format: functional.
The test system of series [27] is Mus musculus. As to the kind of experiment: Analgesic activity in Mus musculus (mouse) assessed as inhibition of acetic acid-induced writhing at 13 mg/kg, po measured after 25 min relative to control. The format is functional.
Series [28] deals with Rattus norvegicus. As to the kind of experiment: Anti-inflammatory activity in Rattus norvegicus (rat) assessed as inhibition of carrageenan-induced paw edema at 13 mg/kg, po administered at 1 hr prior to carrageenan-challenge measured after 4 hr relative to control. Format: functional.
For series [29], the system named is Rattus norvegicus. As to the kind of experiment: Ulcerogenic activity in fasted albino Rattus norvegicus (rat) assessed as stomach mucosal injury at 13 mg/kg, po administered QD for 3 days measured on day 4 by electron microscopic analysis. The arrangement: dose 13 mg/kg, route oral. The note with it: in vivo, 72 h. The format is toxicity, organism-based.
Series [30] has as its system Rattus norvegicus. In words: Ulcerogenic activity in fasted albino Rattus norvegicus (rat) at 13 mg/kg, po administered QD for 3 days measured on day 4. The note with it: in vivo, 72 h. The format is toxicity, organism-based. Also noted: dose 13 mg/kg, route oral.
The test system of series [31] is Rattus norvegicus. In words: Anti-inflammatory activity in Rattus norvegicus (rat) assessed as inhibition of carrageenan-induced paw edema at 13 mg/kg, po administered at 1 hr prior to carrageenan-challenge measured after 2 hr relative to control. Format: functional.
Series [32] deals with Rattus norvegicus. As to the kind of experiment: Anti-inflammatory activity in Rattus norvegicus (rat) assessed as inhibition of carrageenan-induced paw edema at 13 mg/kg, po administered at 1 hr prior to carrageenan-challenge measured after 3 hr relative to control. Format: functional.

In general, inhibition in vivo refers to the relative decrease from the control value, in per cent.

For the molecule `CC(=O)Nc1ccc(OC(=O)c2ccccc2N(CCO[N+](=O)[O-])c2ccc(S(N)(=O)=O)cc2)cc1`, the inhibition in vivo at 12 mg/kg with Mus musculus [1] stood at 26.2%; with Rattus norvegicus [2], 9.41%; with Rattus norvegicus [3], 8.33%; in the series on Rattus norvegicus [4], 8.46%; in the series with Rattus norvegicus [7], 11.5%. Besides, the results for the Activity (in series [5]; in the series with Rattus norvegicus [6]) were 5.88% and “Non-toxic”, respectively.

As to `CC(=O)Nc1ccc(OC(=O)c2ccc(N(CCO[N+](=O)[O-])c3ccccc3C(=O)Oc3ccc(NC(C)=O)cc3)cc2)cc1`, the inhibition in vivo at 10 mg/kg with Rattus norvegicus [8] is 11.7%; in the series on Rattus norvegicus [9], 12.1%; in the series on Mus musculus [10] it was 11.2%; with Rattus norvegicus [11] it was 13.7%; with Rattus norvegicus [12] it was 18.7%. For the same molecule, the values for the Activity (in [5]; with Rattus norvegicus [13]) were 2.46% and “Non-toxic”, respectively.

Regarding `CC(=O)Nc1ccc(OC(=O)c2ccccc2N(CCO[N+](=O)[O-])c2ccccc2)cc1`, the inhibition in vivo at 14 mg/kg in the series with Rattus norvegicus [14] was 26.7%; with Rattus norvegicus [16] it was 65.8%; in the series on Rattus norvegicus [18], 59.6%; in the series on Mus musculus [19], 15.4%; with Rattus norvegicus [20] it was 55.2%. The Activity result in the series on Rattus norvegicus [15] was “Non-toxic”; in the series on Rattus norvegicus [17], “Non-toxic”; in series [5], 10.71%.

As for `CC(=O)Nc1ccc(OC(=O)c2ccccc2N(CCO[N+](=O)[O-])c2ccc(C)cc2)cc1`, the inhibition in vivo at 14 mg/kg in the series with Rattus norvegicus [14] stood at 30%; in the series with Rattus norvegicus [16], 24.4%; with Rattus norvegicus [18] it was 36.8%; in the series with Mus musculus [19] it was 21.8%; with Rattus norvegicus [20], 18%. Also, the values for the Activity result (in the series with Rattus norvegicus [15]; in the series on Rattus norvegicus [17]; in series [5]) were “Non-toxic”, “Non-toxic” and 7.31%, respectively.

On to `O=C(O)Cc1ccccc1Nc1c(Cl)cccc1Cl` [DICLOFENAC SODIUM], for which the inhibition in vivo at 20 mg/kg in the series with Rattus norvegicus [21] was determined as 45%; in the series on Rattus norvegicus [22], 42.1%; in the series with Rattus norvegicus [23], 73.4%; in the series on Mus musculus [24] it was 8.2%; with Rattus norvegicus [25], 73.3%.

As for `CC(=O)Nc1ccc(OC(=O)c2ccccc2N(CCO[N+](=O)[O-])c2ccc([N+](=O)[O-])cc2)cc1`, the inhibition in vivo at 13 mg/kg with Rattus norvegicus [26] was 6.67%; in the series with Mus musculus [27] it was 13.8%; with Rattus norvegicus [28], 32.1%; in the series with Rattus norvegicus [31], 11.9%; in the series on Rattus norvegicus [32], 23.3%. Besides, the figures for the Activity entry (in the series with Rattus norvegicus [29]; in the series with Rattus norvegicus [30]; in series [5]) were “Non-toxic”, “Non-toxic” and 6.98%, respectively.
